The test system of the assay is L1210 leukemia ip in BDF1 mice, survival T/C. As to the kind of experiment: NCI In Vivo Anticancer Drug Screen. Data for tumor model L1210 Leukemia (intraperitoneal) in B6D2F1 (BDF1) mice. The note with it: higher = longer survival. In a few lines:
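Tumor cells were implanted, animals were treated, and survival was followed. The result divides the treated measurement by the vehicle-control measurement.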

[1] abbreviates: endpoint: mean survival time, dose: 100.0 mg/kg/injection, schedule: Q01DX009 (ip), vehicle: saline with Tween-80.
[2] abbreviates: endpoint: mean survival time, dose: 100.0 mg/kg/injection, schedule: Q01DX001 (ip), vehicle: saline with Tween-80.
The mark [3] stands for this setting: endpoint: mean survival time, dose: 200.0 mg/kg/injection, schedule: Q01DX001 (ip), vehicle: saline with Tween-80.
Where [4] appears, read: endpoint: mean survival time, dose: 400.0 mg/kg/injection, schedule: Q01DX001 (ip), vehicle: saline with Tween-80.
Setting [5] is: endpoint: mean survival time, dose: 75.0 mg/kg/injection, schedule: Q01DX001 (ip), vehicle: saline.
[6] abbreviates: endpoint: mean survival time, dose: 75.0 mg/kg/injection, schedule: Q04DX003 (ip), vehicle: saline.
Setting [7] is: endpoint: mean survival time, dose: 150.0 mg/kg/injection, schedule: Q01DX001 (ip), vehicle: saline.
The mark [8] stands for this setting: endpoint: mean survival time, dose: 150.0 mg/kg/injection, schedule: Q04DX003 (ip), vehicle: saline.
Where [9] appears, read: endpoint: mean survival time, dose: 300.0 mg/kg/injection, schedule: Q01DX001 (ip), vehicle: saline.
Where [10] appears, read: endpoint: mean survival time, dose: 300.0 mg/kg/injection, schedule: Q04DX003 (ip), vehicle: saline.
The mark [11] stands for this setting: endpoint: mean survival time, dose: 100.0 mg/kg/injection, schedule: Q01DX001 (ip), vehicle: saline.
[12] abbreviates: endpoint: mean survival time, dose: 200.0 mg/kg/injection, schedule: Q01DX001 (ip), vehicle: saline.
The mark [13] stands for this setting: endpoint: mean survival time, dose: 400.0 mg/kg/injection, schedule: Q01DX001 (ip), vehicle: saline.
[14] abbreviates: endpoint: mean survival time, dose: 100.0 mg/kg/injection, schedule: Q04DX003 (ip), vehicle: saline with Tween-80.
[15] abbreviates: endpoint: mean survival time, dose: 200.0 mg/kg/injection, schedule: Q04DX003 (ip), vehicle: saline with Tween-80.
Where [16] appears, read: endpoint: mean survival time, dose: 400.0 mg/kg/injection, schedule: Q04DX003 (ip), vehicle: saline with Tween-80.

Several values for one entry are separate records, joined by “and”; a condition that tells them apart may be missing. Equal values may be shown once. Toxic doses and inconclusive results are not listed.

Turning to `COc1ccc(NC(=O)Nc2c(C)cc(C)cc2C)cc1`, the T/C was 94 % of control (endpoint: mean survival time, dose: 100.0 mg/kg/injection, schedule: Q01DX009 (ip), vehicle: gum acacia); 93 % of control (endpoint: mean survival time, dose: 100.0 mg/kg/injection, schedule: Q04DX003 (ip), vehicle: gum acacia); 96 % of control (endpoint: mean survival time, dose: 200.0 mg/kg/injection, schedule: Q01DX009 (ip), vehicle: gum acacia); 95 % of control (endpoint: mean survival time, dose: 200.0 mg/kg/injection, schedule: Q04DX003 (ip), vehicle: gum acacia); 98 % of control (endpoint: mean survival time, dose: 400.0 mg/kg/injection, schedule: Q01DX009 (ip), vehicle: gum acacia); 87 % of control (endpoint: mean survival time, dose: 400.0 mg/kg/injection, schedule: Q04DX003 (ip), vehicle: gum acacia).
Regarding `CCN(CC)CCC(=O)c1ccccc1`, the T/C was 100 % of control (endpoint: mean survival time, dose: 12.5 mg/kg/injection, schedule: Q01DX009 (ip), vehicle: saline); 97 % of control (endpoint: mean survival time, dose: 25.0 mg/kg/injection, schedule: Q01DX009 (ip), vehicle: saline); 96 % of control (endpoint: mean survival time, dose: 50.0 mg/kg/injection, schedule: Q01DX009 (ip), vehicle: saline with Tween-80); 97 % of control (endpoint: mean survival time, dose: 50.0 mg/kg/injection, schedule: Q01DX009 (ip), vehicle: saline); 91 % of control under setting [1].
As to `CC(=O)OC1CCC2(C)C(C)CC3C(=O)OC32C1` (centres undefined), the T/C is 87 % of control (endpoint: mean survival time, dose: 100.0 mg/kg/injection, schedule: Q04DX003 (ip), vehicle: acetone) and 90 % of control (endpoint: mean survival time, dose: 200.0 mg/kg/injection, schedule: Q04DX003 (ip), vehicle: acetone).
As for `Cc1cc(C(=O)C(=O)O)c(CN2C(=O)c3ccccc3C2=O)c(=O)n1C`, the T/C was 97 % of control under setting [2], 107 % of control under setting [3] and 97 % of control under setting [4].
Take `CC(=O)ON1CCC=NC1`: the T/C was 102 % of control (endpoint: mean survival time, dose: 50.0 mg/kg/injection, schedule: Q04DX002 (ip), vehicle: saline); 91 % of control (endpoint: mean survival time, dose: 100.0 mg/kg/injection, schedule: Q04DX002 (ip), vehicle: saline); 91 % of control (endpoint: mean survival time, dose: 200.0 mg/kg/injection, schedule: Q04DX002 (ip), vehicle: saline); 109 % of control (endpoint: mean survival time, dose: 400.0 mg/kg/injection, schedule: Q04DX002 (ip), vehicle: saline).
For `CCOC(=O)C(CO)NS(=O)(=O)c1ccc(C)cc1` (centres undefined), the T/C is 103 % of control under setting [5]; 102 % of control under setting [6]; 106 % of control under setting [7]; 103 % of control under setting [8]; 103 % of control under setting [9]; 97 % of control under setting [10].
For `O=C(Nc1cccc2ccccc12)Nc1cccc2ccccc12`, the T/C (endpoint: mean survival time, dose: 100.0 mg/kg/injection, schedule: Q01DX001 (ip), vehicle: carboxymethylcellulose (CMC)) is 95 % of control; the T/C (endpoint: mean survival time, dose: 200.0 mg/kg/injection, schedule: Q01DX001 (ip), vehicle: carboxymethylcellulose (CMC)) is 90 % of control; the T/C (endpoint: mean survival time, dose: 400.0 mg/kg/injection, schedule: Q01DX001 (ip), vehicle: carboxymethylcellulose (CMC)) was 92 % of control.
As to `CN(N=O)c1ccccc1`, the T/C (endpoint: mean survival time, dose: 50.0 mg/kg/injection, schedule: Q01DX001 (ip), vehicle: saline) is 93 % of control; the T/C under setting [11] was 93 % of control; the T/C under setting [12] is 98 % of control; the T/C under setting [13] is 102 % of control.
`CCCNC(=O)C1C2C=CC(CC2)C1C(=O)NCCC` (centres undefined): the T/C is 92 % of control under setting [14], 100 % of control under setting [15] and 96 % of control under setting [16].
Take `COC(=O)C1=CNC=C(C(=O)OC)C1c1ccc(OC)cc1`: the T/C reads like this: under setting [14], 95 % of control; under setting [15], 96 % of control; under setting [16], 95 % of control.
`CCOC(=O)CC[P+](c1ccccc1)(c1ccccc1)c1ccccc1`: the T/C reads like this: under setting [5], 103 % of control; under setting [6], 106 % of control; under setting [7], 109 % of control; under setting [8], 105 % of control; under setting [9], 101 % of control; under setting [10], 107 % of control.
Consider `CCOc1ccccc1/C=C1\C=C(CC)SC1=O`, for which the T/C is 91 % of control under setting [2], 94 % of control under setting [3] and 91 % of control under setting [4].
As to `Cc1cccc(C)c1NC(N)=S`, the T/C (endpoint: mean survival time, dose: 100.0 mg/kg/injection, schedule: Q04DX003 (ip), vehicle: Klucel (hydroxypropylcellulose) (HPC)) is 98 % of control and the T/C (endpoint: mean survival time, dose: 200.0 mg/kg/injection, schedule: Q04DX003 (ip), vehicle: Klucel (hydroxypropylcellulose) (HPC)) is 90 % of control.
As for `Cc1cc(N(CCOS(C)(=O)=O)CCOS(C)(=O)=O)ccc1C=Nc1cc(Br)c(O)c(Br)c1`, the T/C by setting is: (endpoint: mean survival time, dose: 25.0 mg/kg/injection, schedule: Q04DX003 (ip), vehicle: Klucel (hydroxypropylcellulose) (HPC)) 107 % of control and 111 % of control; (endpoint: mean survival time, dose: 50.0 mg/kg/injection, schedule: Q04DX003 (ip), vehicle: Klucel (hydroxypropylcellulose) (HPC)) 109 % of control; (endpoint: mean survival time, dose: 75.0 mg/kg/injection, schedule: Q04DX003 (ip), vehicle: Klucel (hydroxypropylcellulose) (HPC)) 175 % of control.
Take `O=C(Sc1ccccc1-n1cccc1)c1ccccc1`: the T/C under setting [1] was 109 % of control; the T/C (endpoint: mean survival time, dose: 200.0 mg/kg/injection, schedule: Q01DX009 (ip), vehicle: saline with Tween-80) was 100 % of control; the T/C (endpoint: mean survival time, dose: 400.0 mg/kg/injection, schedule: Q01DX009 (ip), vehicle: saline with Tween-80) is 102 % of control.
On to `CC12CCC(=O)C=C1CCC1C2C(=O)CC2(C)C1CCC2(O)C(=O)COC(=O)c1cc([N+](=O)[O-])c(N2CC2)c([N+](=O)[O-])c1` (centres undefined), for which the T/C reads like this: (endpoint: mean survival time, dose: 50.0 mg/kg/injection, schedule: Q01DX001 (sc), vehicle: steriod suspending solution) 103 % of control; (endpoint: mean survival time, dose: 60.0 mg/kg/injection, schedule: Q01DX015 (ip), vehicle: saline) 96 % of control; (endpoint: mean survival time, dose: 90.0 mg/kg/injection, schedule: Q01DX015 (ip), vehicle: saline) 100 % of control; (endpoint: mean survival time, dose: 100.0 mg/kg/injection, schedule: Q01DX001 (sc), vehicle: steriod suspending solution) 95 % of control; (endpoint: mean survival time, dose: 135.0 mg/kg/injection, schedule: Q01DX015 (ip), vehicle: saline) 102 % of control; (endpoint: mean survival time, dose: 200.0 mg/kg/injection, schedule: Q01DX001 (sc), vehicle: steriod suspending solution) 101 % of control. For the same molecule, the T/C reads like this: (endpoint: mean survival time, dose: 200.0 mg/kg/injection, schedule: Q01DX015 (ip), vehicle: saline) 96 % of control; (endpoint: mean survival time, dose: 400.0 mg/kg/injection, schedule: Q01DX001 (sc), vehicle: steriod suspending solution) 103 % of control.
Take `Nc1ccn(C2OC(COP(=O)(O)O)C(O)C2O)c(=O)n1` (centres undefined): the T/C is, setting by setting: (endpoint: mean survival time, dose: 2.5 mg/kg/injection, schedule: Q01DX009 (ip), vehicle: other) 108 % of control; (endpoint: mean survival time, dose: 5.0 mg/kg/injection, schedule: Q01DX009 (ip), vehicle: other) 96 % of control; (endpoint: mean survival time, dose: 10.0 mg/kg/injection, schedule: Q01DX009 (ip), vehicle: other) 116 % of control; (endpoint: mean survival time, dose: 18.0 mg/kg/injection, schedule: Q01DX Z (ip), vehicle: saline) 193 % of control; (endpoint: mean survival time, dose: 26.5 mg/kg/injection, schedule: Q01DX Z (ip), vehicle: saline) 195 % of control; (endpoint: mean survival time, dose: 40.0 mg/kg/injection, schedule: Q01DX Z (ip), vehicle: saline) 218 % of control. Besides, the T/C (endpoint: mean survival time, dose: 60.0 mg/kg/injection, schedule: Q01DX Z (ip), vehicle: saline) is 157 % of control; the T/C (endpoint: median survival time, dose: 22.0 mg/kg/injection, schedule: Q01DX009 (ip), vehicle: sodium bicarbonate) was 171 % of control; the T/C (endpoint: median survival time, dose: 33.0 mg/kg/injection, schedule: Q01DX009 (ip), vehicle: sodium bicarbonate) is 177 % of control; the T/C (endpoint: median survival time, dose: 46.0 mg/kg/injection, schedule: Q01DX009 (ip), vehicle: sodium bicarbonate) is 177 % of control; the T/C (endpoint: median survival time, dose: 66.0 mg/kg/injection, schedule: Q01DX009 (ip), vehicle: sodium bicarbonate) is 181 % of control.
As to `CC(N)C(=O)NC1C(CO)OC(n2cnc3c(N)ncnc32)C1O` (centres undefined), the T/C reads like this: under setting [11], 105 % of control; under setting [12], 101 % of control; under setting [13], 101 % of control.
`C1CCCC(NNC2CCCCCCC2)CCC1`: the T/C under setting [11] was 94 % of control.
